pIC50: −log10 of the molar value.
The compounds below were run against HCV proteinase (MBP-NS3″Gly 12-NS4A enzyme) (assay: HCV proteinase inhibition: cleavage of quenched fluorescence substrate NS4A/B.F peptide by MBP-NS3″Gly 12-NS4A enzyme). Settings: 10 μM NS4A/B.F peptide, pH 8.5, 10% DMSO, room temperature for 60 minutes; IC50 by manual graph analysis.
Format: biochemical
Excerpt: As mentioned earlier, the compounds of formula I and salts of acidic compounds of formula I with bases are inhibitors of proteases of viral origin.
Construction of Plasmid for the Expression of MBP-NS3″Gly 12-NS4A Enzyme in E. coli
The nucleotide sequence of this expression plasmid is given in SEQ ID NO:1 appended hereto and the amino acid sequence of its expression product is given in SEQ ID NO:2 appended hereto. It is based on the pMAL®-c2 vector supplied by New England Biolabs, Inc. (32 Tozer Rd., Beverly, Mass., USA). The principle of the construction was to create an in-frame fusion of the maltose binding protein (MBP) gene supplied by the pMAL-c2 vector, and sequences of the HCV genome necessary for NS3 proteinase activity. These HCV sequences were inserted between the EcoRI and HindIII sites of the pMAL-c2 polylinker (positions 2695 and 3556 respectively of the sequence given in SEQ ID NO:1).
HCV sequences were derived from plasmids pDS 3348-4045 and pBFK 3348-6062, described by Bartenschlager et al, 1993 (Journal of Virology, 67, 3835-3844). Regions encompassing the NS3 proteinase domain (amino acids 1007-1219) and the NS4A domain (amino acids 1658-1711) were isolated and inserted into the pMAL-c2 vector using standard recombinant DNA techniques, including the PCR amplification of required sequences. Between the NS3 and NS4A domains, a linker region was constructed using synthetic oligonucleotides (positions 3343-3390; amino acids 606-621). The resulting plasmid was used to transform E. coli (strain MC1061) cells and expression of the MBP-NS3″Gly 12-NS4A enzyme was induced as described below.
Protein Expression and Purification
E. coli (strain MC1061) cells transformed with the foregoing plasmid were grown in Luria broth containing ampicillin (100 μg/ml) at 37° C. The cells were grown until an optical density of 0.5 at 600 nm had been reached and enzyme expression was then induced by adding 1 mM isopropylthiogalactoside and incubating at 37° C. for a further 3 hours. The cells were harvested by centrifugation and stored at −80° C.
A pellet from […] bacterial culture was resuspended in E.coli lysis buffer (20 mM Tris HCl, pH 7.5, containing 150 mM NaCl, 1 mM EDTA and 10 mM dithiothreitol) and cell lysis was achieved by two passages through a French Pressure cell. The clear supernatant obtained by centrifugation (18000 g, 30 minutes) was then applied to an amylose resin column (4×1 cm) (New England Biolabs) which had been equilibrated with ice-cold 50 mM Tris HCl, pH 8.5, containing 200 mM NaCl, 1 mM dithiothreitol and 5% glycerol. The column was washed thoroughly with the equilibration buffer and bound protein was eluted using the equilibration buffer containing 10 mM maltose. Fractions of 1 ml were collected, with fractions containing the enzyme being pooled and stored at −80° C. Enzyme concentration was assayed by the method of M. B. Bradford, Analytical Biochemistry, 1976, vol. 72, p.248.
Compounds of formula I (routinely prepared as stock solutions in DMSO) were assayed for their ability to inhibit the cleavage of a quenched fluorescence substrate [NS4A/B.F peptide (N-[4-[4-(dimethylamino)phenylazo]benzoyl]-L-α-aspartyl-L-(α-glutamyl-L-methionyl-L-α-glutamyl-L-α-glutamyl-L-cysteinyl-L-alanyl-L-seryl-L-histidyl-N5-[2-(5-sulpho-1-naphthylamino)ethyl]-L-glutamin-amide); Wilkinson et al, Society for General Microbiology Meeting, University of Warwick, England, Mar. 28, 1996] based on the NS4A/4B cleavage site by enzyme MBP-NS3{acute over (ii)}Gly 12-NS4A in microtitre plates as follows:
The enzyme (0.4-0.6 μg) was added to a mixture (200 μl final volume) containing 50 mM Tris HCl, pH 8.5, with 1 mM NaCl, 0.1 mM EDTA, 1 mM dithiothreitol, 0.1% Triton X-100, 10 μM NS4A/B.F peptide and the test compound of formula I prepared as a stock solution in DMSO and added to give a 10% final concentration of DMSO. […]

How did the pIC50 turn out when “2(RS)-[[N-[N-[N-[N2-(N-Acetyl-L-tyrosyl)-N6-nitro-L-arginyl]-2-methyl-L-phenylalanyl]-3-methyl-L-valyl]-L-leucyl]amino]-4,4,4-trifluorobutyraldehyde” was run?
Its pIC50 is 7.36.

With “2(RS)-[[N-[N-[N-[N-[N-(3-Carboxypropionyl)-L-α-aspartyl-O-benzyl-L-α-glutamyl]-2-methyl-L-phenylalanyl]-3-methyl-L-valyl]-L-leucyl]amino]-4,4,4-trifluorobutyraldehyde” as the compound, how does the pIC50 read?
Its pIC50 is 6.96.

How did the pIC50 turn out when “2(RS)-[[N-[N-[N-[N-[N-(3-Carboxypropionyl)-L-α-aspartyl-L-α-glutamyl]-2-methyl-L-phenylalanyl]-3-methyl-L-valyl]-O-benzyl-L-tyrosyl]amino]-4,4,4-trifluorobutyraldehyde” was run?
The pIC50 was 6.70.

`Cc1ccccc1C[C@H](NC(=O)[C@H](NC(=O)[C@H](CS)NC(=O)CCC(=O)O)C(C)C)C(=O)N[C@H](C(=O)N[C@@H](CC(C)C)C(=O)NC(C=O)CC(F)(F)F)C(C)(C)C` (mixture of isomers) [D, 2(RS)-[[N-[N-[N-[N-[N-(3-Carboxypropionyl)-L-cysteinyl]-D-valyl]-2-methyl-L-phenylalanyl]-3-methyl-L-valyl]-L-leucyl]amino]-4,4,4-trifluorobutyraldehyde] was tested. Which pIC50 did it give?
Its pIC50 is 6.85.

How did the pIC50 turn out when “2(RS)-[[N-[N-[N-[N-[N-(9-Hydroxy-9-fluorenyl)carbonyl]-L-seryl]-O-benzyl-D-seryl]-2-methyl-L-phenylalanyl]-3-methyl-L-valyl]-L-leucyl]-amino]-4,4,4-trifluorobutyraldehyde” was run?
Its pIC50 is 7.70.

How did the pIC50 turn out when “1(RS)-[[N-[N-[N-[N-[N-(4-Acetamidobutyryl)-L-α-aspartyl-L-α-glutamyl]-2-methyl-L-phenylalanyl]-3-methyl-L-valyl]-L-leucyl]-amino]propylboronic acid” was run?
The pIC50 was 6.64.

Reference: patent US6372883B1, “Antiviral medicaments” (Hoffmann-La Roche Inc., priority 1998, dated 2002)
